# Measured values: patent publication US20260256728A1, “TREATMENT FOR ASYMPTOMATIC STARGARDT DISEASE PATIENTS” (priority 2024, published 2026)
# Columns and labels:
# TEASE-3 safety = assay type: in vivo, human; settings: three patients, 14 mg daily
# Method: The tolerability and effects of ALK-001 (gildeuretinol acetate) in Stargardt Disease (Clinical trial group 3, also known as TEASE-3) study was an open-label, multicenter, case control study designed to evaluate the efficacy and safety of gildeuretinol acetate on the progression of Stargardt disease in asymptomatic individuals. The trial was conducted at multiple sites in the United States. Patients received gildeuretinol acetate 14 mg capsules, to be taken orally once daily. Trial visits occurred every 6 months approximately following screening and treatment start visits. Ocular safety was assessed by retinal imaging and ocular exam, which included evaluation of the anterior and posterior segments and the lens. Systemic safety was assessed by physical exam, comprehensive clinical labs (biochemistry, hematology, lipids), and 12-lead ECG.
# [1] = TEASE-1 safety, adverse events
smiles,measurement,setting,value
[2H]C([2H])([2H])C(/C=C/C=C(C)/C=C/C1=C(C)CCCC1(C)C)=C\COC(C)=O [gildeuretinol acetate],"adverse reactions linked to excessive or insufficient vitamin A (delays in dark adaptation, night blindness)",TEASE-3 safety,None of the three Stargardt disease asymptomatic patients exhibited adverse reactions
same,Patients experiencing event (%): Death,[1]; 14 mg (N = 15),1 (6.7)
same,Patients experiencing event (%): Influenza,[1]; 14 mg (N = 15),0
same,Patients experiencing event (%): Vulvovaginal candidiasis,[1]; 14 mg (N = 15),0
same,Patients experiencing event (%): Wrist fracture,[1]; 14 mg (N = 15),0
same,Patients experiencing event (%): Xanthelasma,[1]; 14 mg (N = 15),0
same,Patients experiencing event (%): Death,[1]; 24 mg (N = 15),0
same,Patients experiencing event (%): Influenza,[1]; 24 mg (N = 15),1 (6.7)
same,Patients experiencing event (%): Vulvovaginal candidiasis,[1]; 24 mg (N = 15),1 (6.7)
same,Patients experiencing event (%): Wrist fracture,[1]; 24 mg (N = 15),0
same,Patients experiencing event (%): Xanthelasma,[1]; 24 mg (N = 15),1 (6.7)
same,Patients experiencing event (%): Abdominal discomfort,[1]; Crossover (N = 10),1 (10.0)
same,Patients experiencing event (%): Abdominal distension,[1]; Crossover (N = 10),0
same,Patients experiencing event (%): Abdominal pain upper,[1]; Crossover (N = 10),0
same,Patients experiencing event (%): Abnormal dreams,[1]; Crossover (N = 10),0
same,Patients experiencing event (%): Alanine aminotransferase increased,[1]; Crossover (N = 10),1 (10.0)
same,Patients experiencing event (%): Alopecia,[1]; Crossover (N = 10),0
same,Patients experiencing event (%): Ankle fracture,[1]; Crossover (N = 10),0
same,Patients experiencing event (%): Arthralgia,[1]; Crossover (N = 10),1 (10.0)
same,Patients experiencing event (%): Arthritis,[1]; Crossover (N = 10),1 (10.0)
same,Patients experiencing event (%): Aspartate aminotransferase increased,[1]; Crossover (N = 10),1 (10.0)
same,Patients experiencing event (%): Back injury,[1]; Crossover (N = 10),0
same,Patients experiencing event (%): Back pain,[1]; Crossover (N = 10),0
same,Patients experiencing event (%): Blepharospasm,[1]; Crossover (N = 10),1 (10.0)
same,Patients experiencing event (%): Blood cholesterol increased,[1]; Crossover (N = 10),0
same,Patients experiencing event (%): Blood creatinine increased,[1]; Crossover (N = 10),0
same,Patients experiencing event (%): Blood iron decreased,[1]; Crossover (N = 10),0
same,Patients experiencing event (%): Blood pressure increased,[1]; Crossover (N = 10),0
same,Patients experiencing event (%): Blood triglycerides increased,[1]; Crossover (N = 10),0
same,Patients experiencing event (%): Bowel movement irregularity,[1]; Crossover (N = 10),0
same,Patients experiencing event (%): Bronchitis,[1]; Crossover (N = 10),0
same,Patients experiencing event (%): Cartilage injury,[1]; Crossover (N = 10),0
same,Patients experiencing event (%): Conjunctival laceration,[1]; Crossover (N = 10),0
same,Patients experiencing event (%): Conjunctivitis,[1]; Crossover (N = 10),0
same,Patients experiencing event (%): Constipation,[1]; Crossover (N = 10),0
same,Patients experiencing event (%): Cough,[1]; Crossover (N = 10),0
same,Patients experiencing event (%): Death,[1]; Crossover (N = 10),0
same,Patients experiencing event (%): Depression,[1]; Crossover (N = 10),0
same,Patients experiencing event (%): Diarrhoea,[1]; Crossover (N = 10),1 (10.0)
same,Patients experiencing event (%): Diplopia,[1]; Crossover (N = 10),0
same,Patients experiencing event (%): Dry eye,[1]; Crossover (N = 10),0
same,Patients experiencing event (%): Dry mouth,[1]; Crossover (N = 10),0
same,Patients experiencing event (%): Dry skin,[1]; Crossover (N = 10),0
same,Patients experiencing event (%): Ear discomfort,[1]; Crossover (N = 10),0
same,Patients experiencing event (%): Ear pain,[1]; Crossover (N = 10),0
same,Patients experiencing event (%): Eczema,[1]; Crossover (N = 10),1 (10.0)
same,Patients experiencing event (%): Electrocardiogram abnormal,[1]; Crossover (N = 10),1 (10.0)
same,Patients experiencing event (%): Erythema,[1]; Crossover (N = 10),0
same,Patients experiencing event (%): Eye irritation,[1]; Crossover (N = 10),0
same,Patients experiencing event (%): Eye pain,[1]; Crossover (N = 10),0
same,Patients experiencing event (%): Eye pruritus,[1]; Crossover (N = 10),0
same,Patients experiencing event (%): Face injury,[1]; Crossover (N = 10),0
same,Patients experiencing event (%): Faeces soft,[1]; Crossover (N = 10),0
same,Patients experiencing event (%): Fall,[1]; Crossover (N = 10),0
same,Patients experiencing event (%): Gastroenteritis,[1]; Crossover (N = 10),1 (10.0)
same,Patients experiencing event (%): Hair texture abnormal,[1]; Crossover (N = 10),0
same,Patients experiencing event (%): Hand fracture,[1]; Crossover (N = 10),0
same,Patients experiencing event (%): Headache,[1]; Crossover (N = 10),0
same,Patients experiencing event (%): Hordeolum,[1]; Crossover (N = 10),0
same,Patients experiencing event (%): Hypertension,[1]; Crossover (N = 10),0
same,Patients experiencing event (%): Hypobarism,[1]; Crossover (N = 10),0
same,Patients experiencing event (%): Hypothyroidism,[1]; Crossover (N = 10),0
same,Patients experiencing event (%): Hysterectomy,[1]; Crossover (N = 10),0
same,Patients experiencing event (%): Inflammation,[1]; Crossover (N = 10),0
same,Patients experiencing event (%): Influenza,[1]; Crossover (N = 10),0
same,Patients experiencing event (%): Insomnia,[1]; Crossover (N = 10),0
same,Patients experiencing event (%): Intracranial pressure increased,[1]; Crossover (N = 10),0
same,Patients experiencing event (%): Irritability,[1]; Crossover (N = 10),0
same,Patients experiencing event (%): Jaw operation,[1]; Crossover (N = 10),0
same,Patients experiencing event (%): Knee arthroplasty,[1]; Crossover (N = 10),0
same,Patients experiencing event (%): Laryngitis,[1]; Crossover (N = 10),0
same,Patients experiencing event (%): Lip swelling,[1]; Crossover (N = 10),0
same,Patients experiencing event (%): Low density lipoprotein increased,[1]; Crossover (N = 10),0
same,Patients experiencing event (%): Muscle spasms,[1]; Crossover (N = 10),0
same,Patients experiencing event (%): Muscle strain,[1]; Crossover (N = 10),0
same,Patients experiencing event (%): Musculoskeletal pain,[1]; Crossover (N = 10),0
same,Patients experiencing event (%): Nasopharyngitis,[1]; Crossover (N = 10),1 (10.0)
same,Patients experiencing event (%): Nausea,[1]; Crossover (N = 10),0
same,Patients experiencing event (%): Neck pain,[1]; Crossover (N = 10),0
same,Patients experiencing event (%): Nephrolithiasis,[1]; Crossover (N = 10),1 (10.0)
same,Patients experiencing event (%): Nerve compression,[1]; Crossover (N = 10),0
same,Patients experiencing event (%): Neuralgia,[1]; Crossover (N = 10),0
same,Patients experiencing event (%): Obsessive-compulsive disorder,[1]; Crossover (N = 10),0
same,Patients experiencing event (%): Oropharyngeal pain,[1]; Crossover (N = 10),1 (10.0)
same,Patients experiencing event (%): Osteoporosis,[1]; Crossover (N = 10),0
same,Patients experiencing event (%): Overall,[1]; Crossover (N = 10),8 (80)
same,Patients experiencing event (%): Pain,[1]; Crossover (N = 10),0
same,Patients experiencing event (%): Pain in extremity,[1]; Crossover (N = 10),0
same,Patients experiencing event (%): Pain in jaw,[1]; Crossover (N = 10),0
same,Patients experiencing event (%): Peripheral coldness,[1]; Crossover (N = 10),0
same,Patients experiencing event (%): Pharyngitis streptococcal,[1]; Crossover (N = 10),0
same,Patients experiencing event (%): Photophobia,[1]; Crossover (N = 10),0
same,Patients experiencing event (%): Photopsia,[1]; Crossover (N = 10),0
same,Patients experiencing event (%): Plantar fasciitis,[1]; Crossover (N = 10),0
same,Patients experiencing event (%): Pleurisy,[1]; Crossover (N = 10),1 (10.0)
same,Patients experiencing event (%): Pneumonia,[1]; Crossover (N = 10),1 (10.0)
same,Patients experiencing event (%): Premenstrual syndrome,[1]; Crossover (N = 10),0
same,Patients experiencing event (%): Punctate keratitis,[1]; Crossover (N = 10),0
same,Patients experiencing event (%): Pyrexia,[1]; Crossover (N = 10),0
same,Patients experiencing event (%): Radius fracture,[1]; Crossover (N = 10),0
same,Patients experiencing event (%): Rash,[1]; Crossover (N = 10),1 (10.0)
same,Patients experiencing event (%): Rotator cuff syndrome,[1]; Crossover (N = 10),0
same,Patients experiencing event (%): Sialoadenitis,[1]; Crossover (N = 10),0
same,Patients experiencing event (%): Sinus congestion,[1]; Crossover (N = 10),0
same,Patients experiencing event (%): Sinusitis,[1]; Crossover (N = 10),0
same,Patients experiencing event (%): Sjogren's syndrome,[1]; Crossover (N = 10),0
same,Patients experiencing event (%): Subdural haematoma,[1]; Crossover (N = 10),0
same,Patients experiencing event (%): Syncope,[1]; Crossover (N = 10),0
same,Patients experiencing event (%): Tendonitis,[1]; Crossover (N = 10),0
same,Patients experiencing event (%): Thoracic outlet syndrome,[1]; Crossover (N = 10),0
same,Patients experiencing event (%): Tongue dry,[1]; Crossover (N = 10),0
same,Patients experiencing event (%): Tooth abscess,[1]; Crossover (N = 10),0
same,Patients experiencing event (%): Tooth extraction,[1]; Crossover (N = 10),0
same,Patients experiencing event (%): Toothache,[1]; Crossover (N = 10),0
same,Patients experiencing event (%): Vision blurred,[1]; Crossover (N = 10),1 (10.0)
same,Patients experiencing event (%): Visual field defect,[1]; Crossover (N = 10),1 (10.0)
same,Patients experiencing event (%): Visual impairment,[1]; Crossover (N = 10),0
same,Patients experiencing event (%): Vitamin B12 deficiency,[1]; Crossover (N = 10),0
same,Patients experiencing event (%): Vitamin D decreased,[1]; Crossover (N = 10),0
same,Patients experiencing event (%): Vitreous floaters,[1]; Crossover (N = 10),1 (10.0)
same,Patients experiencing event (%): Vulvovaginal candidiasis,[1]; Crossover (N = 10),0
same,Patients experiencing event (%): Wrist fracture,[1]; Crossover (N = 10),0
same,Patients experiencing event (%): Xanthelasma,[1]; Crossover (N = 10),0
same,association between treatment groups and frequency of adverse events,[1]; in vivo,no association was observed
same,"changes by physical examination, electrocardiogram, vital signs, hematology, biochemistry and lipid panels",[1]; in vivo,no changes were attributed to gildeuretinol acetate
